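A five-concentration, 48-hour dose response in 96-well plates underlies each endpoint, interpolated linearly between surrounding concentrations. TGI: concentration producing complete growth inhibition.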
Tests used:
Experiment in all cases: inhibition of tumour cell growth, NCI panel, 48 h
[1] = test system: 786-0 renal
[2] = test system: A498 renal
[3] = test system: A549 NSCLC
[4] = test system: ACHN renal
[5] = test system: CAKI-1 renal
[6] = test system: CCRF-CEM leukemia
[7] = test system: COLO 205 colon
[8] = test system: DU-145 prostate
[9] = test system: EKVX NSCLC
[10] = test system: HCT-116 colon
[11] = test system: HCT-15 colon
[12] = test system: HL-60(TB) leukemia
[13] = test system: HOP-62 NSCLC
[14] = test system: HOP-92 NSCLC
[15] = test system: HS 578T breast
[16] = test system: HT29 colon
[17] = test system: IGROV1 ovarian
[18] = test system: K-562 leukemia
[19] = test system: KM12 colon
[20] = test system: LOX IMVI melanoma
[21] = test system: M14 melanoma
[22] = test system: MALME-3M melanoma
[23] = test system: MCF7 breast
[24] = test system: MDA-MB-231 breast
[25] = test system: MDA-MB-435
[26] = test system: MDA-N
[27] = test system: MOLT-4 leukemia
[28] = test system: NCI-H226 lung
[29] = test system: NCI-H23 lung
[30] = test system: NCI-H460 lung
[31] = test system: NCI-H522 lung
[32] = test system: NCI/ADR-RES ovarian
[33] = test system: OVCAR-3 ovarian
[34] = test system: OVCAR-4 ovarian
[35] = test system: OVCAR-5 ovarian
[36] = test system: OVCAR-8 ovarian
[37] = test system: PC-3 prostate
[38] = test system: RPMI-8226 leukemia
[39] = test system: RXF 393 renal
[40] = test system: SF-268 CNS
[41] = test system: SF-295 CNS
[42] = test system: SF-539 CNS
[43] = test system: SK-MEL-2 melanoma
[44] = test system: SK-MEL-28 melanoma
[45] = test system: SK-MEL-5 melanoma
[46] = test system: SK-OV-3 ovarian
[47] = test system: SN12C renal
[48] = test system: SNB-19 CNS
[49] = test system: SNB-75 CNS
[50] = test system: SR leukemia
[51] = test system: SW-620 colon
[52] = test system: TK-10 renal
[53] = test system: U251 CNS
[54] = test system: UACC-257 melanoma
[55] = test system: UACC-62 melanoma
[56] = test system: UO-31 renal

Measured: TGI

CN(CC(=O)O)c1ncc2c(n1)C=CCC2
> 100 µM: all assays above
